Measured values from paper PMC11040665, “Aminothiazolone Inhibitors Disrupt the Protein–RNA Interaction of METTL16 and Modulate the m^6A RNA Modification” (JACS Au, 2024).
pKd: −log10 of the molar value.

Columns and labels:
[1] = test system: total m^6A level in MDA-MB-231 cells; assay: Total RNA m6A level by dot blot, MDA-MB-231; format: cell-based, human; details: 50 μM, 24 h, 45 potassium salt used
Description: (§1) MDA-MB-231 cells and A549 cells were seeded into 6-well plates at 70% confluency and cultured overnight. Afterward they were treated with compound 45 potassium salt for 24 h. After the compound treatment, the cell culture medium was discarded and cells were washed with DPBS three times. The total RNA was then purified using RNeasy Mini Kit (Qiagen 74106) following the manufacturer’s protocol.
(§2) Concentrations of the total RNA were measured by NanoDrop and each sample was calibrated to the same concentration using RNase-free water. RNA samples were heated at 95 °C for 3 min and immediately chilled on ice to disrupt the secondary structures. The total RNA (1 μg) was dropped onto a positively charged nylon membrane (Invitrogen, AM10102). The membrane with RNA side up was immediately transferred to the UVP Cross-linker (Analytik Jena) with […] bulb and cross-linked under the UV light for 5 min two times, then the membrane was washed in TBST (1xTBS with 0.1% Tween 20) for 10 min at room temperature and blocked with 5% skimmed milk in TBST for 1 h at room temperature. The membrane was incubated with the anti-m^6A antibody (Synaptic systems 202003, 1 μg/mL) overnight at 4 °C. […] The membrane was further washed with TBST and detected with the Amersham ECL Prime Western Blotting Detection Reagent. […]

[2] = test system: MAT2A mRNA splicing in MDA-MB-231 cells; assay: MAT2A splicing by RT-qPCR, MDA-MB-231; format: cell-based, human; details: 50 μM, 24 h, 45 potassium salt used
Description: as §1
(§3) The reverse transcription was performed by using High-Capacity cDNA Reverse Transcription Kits (Thermo Fisher 4368814) with 500 ng of total RNA. qPCR was performed using PowerUp SYBR Green Master Mix (Thermo Fisher, A25742) with a 10 μL volume. The cycling was performed using Bio-Rad CFX96 Real-Time PCR Detection System following the standard cycling mode (primer Tm ≥ 60 °C) on the manufacturer’s protocol. The p value was calculated using GraphPad Prism software’s one-way ANOVA analysis.

His-tagged METTL16 MTD = biological target: T1, His-tagged METTL16 MTD (Homo sapiens, UniProt Q86W50); assay: switchSENSE biosensor assay; format: binding; details: potassium salt of compound 45 was used
T1 construct: His-tagged METTL16 (1–291) was purified using the same protocol, without protease cleavage; made in house; host or cells: E. coli Rosetta (DE3)
T1 sequence (Q86W50 1-291): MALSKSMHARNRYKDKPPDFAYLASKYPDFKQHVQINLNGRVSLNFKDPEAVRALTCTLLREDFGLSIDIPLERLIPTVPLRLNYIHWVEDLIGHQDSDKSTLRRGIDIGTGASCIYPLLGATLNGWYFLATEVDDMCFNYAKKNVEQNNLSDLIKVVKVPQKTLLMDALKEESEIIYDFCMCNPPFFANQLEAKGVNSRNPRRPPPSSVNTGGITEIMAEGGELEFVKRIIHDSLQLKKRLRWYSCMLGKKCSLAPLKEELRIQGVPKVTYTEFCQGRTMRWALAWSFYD
Description: The biosensor assay was performed using a heliX instrument (Dynamic Biosensors) with a heliX adapter chip. The His-capture kit (HK-NTA-1) was used to functionalize and regenerate the chip. 100 nM His-tagged METTL16 MTD was captured to the surface and regenerated with imidazole solution (250 mM in 10 mM Tris, pH 7.4, 140 mM NaCl, 0.05% Tween 20, 50 μM EDTA, 50 μM EGTA) each time after measurement. PE140 buffer was used as the running buffer (10 mM Na2HPO4/NaH2PO4, pH 7.4, 140 mM NaCl, 0.05% Tween 20, 50 μM EDTA) and 0.2% DMSO was used as concertation 0. The association and dissociation flow rates were 200 μL/min, with an association time of 90 s and a dissociation time of 120 s. Data were analyzed using heliOS using the ‘kinetics mono- & biphasic-free amplitudes fitting’ mode.

[3] = test system: MAT2A mRNA splicing in A549 cells; assay: MAT2A splicing by RT-qPCR, A549; format: cell-based, human; details: 50 μM, 24 h, 45 potassium salt used
Description: as §1, §3
Figure S10. Cellular evaluation of selected METTL16 inhibitors. (A)Suppression on cell viability in A549 cells.
Data are shown as mean ± SEM, n=3. (B) Suppression on cell viability in HCT116 cells. Data are shown as mean ± SEM, n=3. (C) Spliced MAT2A in A549 cells increased after treated 24 h with indicated dose of 45. Data are shown as mean ± SEM, n=4. **P<0.01, ns P>0.05. (D) Total RNA m 6A level in A549 cells after treated 24 h with 45. 45 potassium salt was used for MAT2A splicing and total RNA m 6A level evaluation. […]

[4] = test system: total RNA m^6A level in A549 cells; assay: Total RNA m6A level by dot blot, A549; format: cell-based, human; details: 50 μM, 24 h, 45 potassium salt used
Description: as §1, §2

METTL16 MTD (1-291) = biological target: T2, METTL16 MTD (1-291) (Homo sapiens, UniProt Q86W50); assay: Isothermal titration calorimetry (ITC); format: binding; details: 700 μM METTL16 (1-291) titrated into 50 μM compound, 25 °C
T2 construct: METTL16 MTD (1–291) was subcloned to pOPINB plasmid; His tag followed by HRV 3C cleavage site (N, cleaved yes); made in house; host or cells: E. coli Rosetta (DE3)
T2 sequence (Q86W50 1-291): T1 sequence (Q86W50 1-291)
Description: ITC was performed by using the MicroCal PEAQ-ITC system (Malvern) at 25 °C. METTL16 MTD protein was directly used after purification. 700 μM protein in SEC buffer (20 mM pH 7.5, 200 mM NaCl, 0.5 mM TCEP,2% v/v glycerol) supplemented with 0.5% DMSO were loaded to the syringe, 50 μM compound in SEC buffer (final 0.5%DMSO) was loaded to the cell, both samples were adjusted to 25 °C and degassed before loading. The experiment was carried out using the reference power of 10, with 19 injections. Data were analyzed using the MicroCal PEAQ-ITC Analysis Software.
Figure S5. Compound Ia as a negative control for DSF assay ,T m values of tested compounds and ITC result of […]
47. […] Data are shown as mean ± SEM, n=4. (B) EMSA assay result of compound Ia. (C) Melting curve of METTL16 in the DSF assay treated with different concentrations of Ia. Data are shown as mean ± SD, n=2. (D) T m values of DMSO control and compound Ia, 27,45,46, and 47, assay was conducted with two biological repeats in duplicate. Data are shown as mean ± SEM, n=4. (E) ITC validation of compound 47, using 700 μM METTL16 (1-291) protein to titrate 50 μM compound 47.
(1 picture or pasted object on this page, not shown here)

METTL16 MTD = biological target: T3, METTL16 MTD (Homo sapiens, UniProt Q86W50); assay: Michaelis–Menten kinetics study, in vitro methylation assay at different SAM concentrations; format: biochemical; details: SAM from 75 µM, two-fold dilution
T3 construct: METTL16 MTD (1–291) was subcloned to pOPINB plasmid; His tag followed by HRV 3C cleavage site (N, cleaved yes); made in house; host or cells: E. coli Rosetta (DE3)
T3 sequence (Q86W50 1-291): T1 sequence (Q86W50 1-291)

SMILES | total m^6A RNA level, in words [1] | MAT2A splicing, in words [2] | KA, biosensor assay (His-tagged METTL16 MTD) | pKd (His-tagged METTL16 MTD) | MAT2A splicing, in words [3] | total m^6A RNA level, in words [4] | pKd (METTL16 MTD (1-291)) | inhibition mode with SAM (Michaelis–Menten kinetics) (METTL16 MTD)
CN1C(=O)C(=C2SC(NS(=O)(=O)c3ccc(C(=O)O)cc3)=NC2=O)c2cc(Br)ccc21 [Compound 45] | increased the total m^6A mRNA levels | promoted MAT2A splicing | 7.43 ± 0.84E+5 M^-1 | 5.87 | promoted MAT2A splicing | increased the total m^6A mRNA levels |  | 
O=C1N=C(NS(=O)(=O)c2ccc(C(=O)O)cc2)SC1=C1C(=O)Nc2ccc(Br)cc21 [Compound 47] |  |  | 5.67 ± 0.48E+5 M^-1 | 5.75 |  |  | 5.29 | noncompetitive inhibition mode with SAM
